Assay results as given in patent US20250243180A1, “TARGETED PROTEIN DEGRADATION” (Monte Rosa Therapeutics AG, priority 2023, published 2025).

Assays:
[1] = tested on: NEK7; experiment: NEK7 level in PBMC of NHP after oral dosing; type: in vivo, cynomolgus monkeys; conditions: oral 5 mg/kg for 5 days
Description: Non-naïve male and female non-human primate (NHP) cynomolgus monkeys were orally administered with 5 consecutive daily doses of Compound 14 at 5 mg/kg, n=2 per dose group, 1 male and 1 female. Compound formulation was prepared on the day of administration in 0.5% methyl cellulose (4000 cps) in water and animals were fasted overnight. Plasma collected post dose were analyzed using a non GLP LC/MS/MS bioanalytical method to evaluate the compound concentration. Whole blood collected post dose were processed to PBMC and were analyzed using western blot method. Plasma pharmacokinetics and PMBC pharmacodynamics were assessed longitudinally throughout dosing and following dosing cessation.
In Table 8 compound 14 induces NEK7 degradation in vivo. NEK7 protein levels were assessed in PBMC isolated from NHP after oral administration for 5 consecutive days of Compound 14 at 5 mg/kg, n=2 per dose group. NEK7 levels were normalized to β-actin, as determined by JESS, at the indicated time points. NEK7 level at pre dose was normalized to 100%. Days 10 and 15 correspond to recovery period, 5 or 10 days after drug administration, respectively.

[2] = Plasma pharmacokinetics in NHP, 30 mg/kg oral for 7 days; type: in vivo; conditions: oral 30 mg/kg daily for 7 days, average male and female
Description: Naïve NHP were orally administered with 7 consecutive daily dose of Compound 14 at 30 mg/kg, n=4 per dose group, 2 male and 2 female. Compound formulation was prepared on the day of administration in 0.5% methyl cellulose (4000 cps) in water and animals were fed twice a day; water was available ad libitum. Plasma collected posted dose on Day 1 and Day 7 were analyzed using a non GLP LC/MS/MS bioanalytical method to evaluate the compound concentration. Brain samples were harvested 24 h after final dose. Lysates for different brain regions (hippocampus, frontal cortex, and cerebellum) were prepared in M-PER lysis buffer and diluted at total protein concentration of 0.4 mg/mL in 0.1× sample buffer (12-230 kDa detection module; Protein Simple). The anti-NEK7 rabbit mAb (Abcam #AB133514) was used at 1:100 and anti-β-actin rabbit mAb (CST #5125) was used at 1:500. Samples were probed for NEK7 and β-actin protein levels by JESS, and quantified relative to vehicle control.
In Table 10, concentration of Compound 14 in NHP plasma following administration via oral gavage after 7 days post dose at 30 mg/kg is reported. NHP received daily oral administration of 30 mg/kg of Compound 14 for 7 days, n=2.

[3] = tested on: NEK7; experiment: NEK7 degradation in spleen and PBMC in rabbit gout model (JESS); type: in vivo; conditions: rabbits, 10 mg/kg QD×7, harvested 2 h after the final dose
Description: MSU crystals were prepared by dissolving uric acid (Aladdin, cat #U105582) in boiling water (1 g in 200 mL with 6 mL of 1 N NaOH). PH value was adjusted to 7.2 by HCl. The solution was stirred and cooled to room temperature and stored at 4° C. overnight. The precipitate was filtered with filter paper and dried under low heat to obtain MSU crystals. New Zealand White rabbits received an intra-articular injection of 1 mL of MSU crystals (50 mg/mL) into both knees (MSU group) or PBS (as vehicle, control group). n=10 for MSU groups; n=6 for PBS group. […]
On Day 7, tissue was harvested 2 hours post final dose. […] Lysates were prepared in M-PER lysis buffer and protein concentration was measured using Pierce rapid gold BCA protein Assay Kit (Thermo Fisher) according to manufacturer's protocol. […]
(a) To determine NEK7 degradation, spleens and peripheral blood mononuclear cells (PBMC) were analyzed by JESS for NEK7 and normalized to α-Tubulin from five representative animals. (b) The degree of joint swelling was determined by caliper measurements at the indicated time points. (c) Rabbit bone tissue sections were stained and quantified for anti-CD31 immunohistochemistry. Results expressed as mean±SEM. […]

[4] = tested on: New Zealand White rabbits, MSU crystal gout model; experiment: In vivo rabbit gout model (intra-articular MSU): joint swelling and CD31 staining; conditions: daily prophylactic treatment
Description: MSU crystals were prepared by dissolving uric acid (Aladdin, cat #U105582) in boiling water (1 g in 200 mL with 6 mL of 1 N NaOH). PH value was adjusted to 7.2 by HCl. The solution was stirred and cooled to room temperature and stored at 4° C. overnight. The precipitate was filtered with filter paper and dried under low heat to obtain MSU crystals. New Zealand White rabbits received an intra-articular injection of 1 mL of MSU crystals (50 mg/mL) into both knees (MSU group) or PBS (as vehicle, control group). n=10 for MSU groups; n=6 for PBS group.
For immunohistochemistry, bone sections were stained with anti-CD31 (Abcam #ab9498) diluted at 1:500. The nuclei were stained with hematoxylin. Slides were scanned using LEICA Aperio GT450 at 400× magnification. The number of positive blood vessels were counted blindly.
(a) To determine NEK7 degradation, spleens and peripheral blood mononuclear cells (PBMC) were analyzed by JESS for NEK7 and normalized to α-Tubulin from five representative animals. (b) The degree of joint swelling was determined by caliper measurements at the indicated time points. (c) Rabbit bone tissue sections were stained and quantified for anti-CD31 immunohistochemistry. Results expressed as mean±SEM. Statistical analysis was performed using two-way ANOVA. The difference was considered significant when p<0.05.

[5] = both sexes, monkey, plasma, po, 30 mg/kg
[6] = both sexes, non-human primate (NHP)

| Compound | Average percent NEK7/β-actin in PBMC, relative to predose ([1]; Day 1, 6 h) | Average percent NEK7/β-actin in PBMC, relative to predose ([1]; Day 1, 24 h) | Average percent NEK7/β-actin in PBMC, relative to predose ([1]; Day 5, 6 h) | Average percent NEK7/β-actin in PBMC, relative to predose ([1]; Day 5, 24 h) | Average percent NEK7/β-actin in PBMC, relative to predose ([1]; Day 10, 24 h (recovery)) | Average percent NEK7/β-actin in PBMC, relative to predose ([1]; Day 15, 24 h (recovery)) | Cmax ([2]; both sexes, monkey) | Tmax ([2]; both sexes, monkey) | AUC0-24h [2, 5] | AUC(0-t) [2, 5] | Cmax [2, 6] | Tmax [2, 6] | tlast [2] | degradation of NEK7 in spleen and PBMCs [3] | CD31 staining in bone tissue [4] | joint swelling induced by intra-articular MSU injection [4] |
| --- | --- | --- | --- | --- | --- | --- | --- | --- | --- | --- | --- | --- | --- | --- | --- | --- |
| Cc1cnc(C(C)(C)C(=O)NCc2cc(Cl)c(C3CCC(=O)NC3=O)c(Cl)c2)nc1 (stereo not shown) [Compound 14, N-(3,5-dichloro-4-(2,6-dioxopiperidin-3-yl)benzyl)-2-methyl-2-(5-methylpyrimidin-2-yl)-propanamide] | 56% | 44% | 27% | 15% | 45% | 141% | 6600 ng/mL | 1.75 h | 36600 ng·h/mL | 27200 ng·h/mL | 6600 ng/mL | 1.75 h | 8 h |  |  |  |
| CC(C)(C(=O)NCc1cc(Cl)c(C2CCC(=O)NC2=O)c(Cl)c1)c1ncc(C#N)cn1 (stereo not shown) [Compound 16, 2-(5-cyanopyrimidin-2-yl)-N-(3,5-dichloro-4-(2,6-dioxopiperidin-3-yl)benzyl)-2-methyl-propanamide] |  |  |  |  |  |  |  |  |  |  |  |  |  | greater than 50% | improvement | improvement |
